From patent US20090318396A1, “CORTICOSTEROID LINKED BETA-AGONIST COMPOUNDS FOR USE IN THERAPY” (priority 2008, published 2009)

How the values were obtained:
[1] = system: ovalbumin-induced lung inflammation; assay: Mouse ovalbumin model of lung inflammation; format: in vivo, Mice (Balb/c); settings: 3.0 mg/kg IT, 1x/day day 14 and 15; mouse OVA
Protocol: Mice (Balb/c) were immunized by intraperitoneal injection of ovalbumin (10 μg OVA suspended in 2 mg aluminum hydroxide) on day 0 and 7. One group was sensitized and treated with vehicle (NSV). One group was immunized with sterile water only and treated with vehicle, e.g. to serve as a nonsensitized (negative) control (Vehicle). […] On days 14 and 15, the animals were exposed to OVA by inhalation (3 h; 5 mg/m^3). Forty eight hours following the last OVA challenge (day 17) mice were sacrificed. Bronchoalveolar lavage (BAL) was taken from each animal to collect cells and fluid. Cell numbers and differentials were calculated from BAL.

[2] = system: LPS-induced airway inflammation; assay: LPS-induced airway inflammation in rats; format: in vivo, Male Fischer 344 rats
Protocol: Example 52 was evaluated in an LPS-induced airway inflammation model in rats. Male Fischer 344 rats (n 8/group) were treated with either vehicle or test article by intratracheal instillation in […] volume 1 hour prior to LPS challenge. Animals were then exposed to LPS by nose-only inhalation exposure for 10 minutes at 5 mg/m^3 resulting in an estimated 5 μg lung deposition. Animals were sacrificed 4 hours after LPS exposure. Lungs were lavaged for bronchoalveolar lavage cell differentials and cytokine analysis by Luminex multiplex immunoassay.

[3] = system: tobacco-smoke-induced airway inflammation; assay: Tobacco smoke model of airway inflammation in mice; format: in vivo, female C3H mice; settings: mean ± s.e.m.
Protocol: Vehicle and test articles are delivered by intratracheal instillation in 10% ethanol water to animals anesthetized with 3-5% isoflurane (n=8 animals per test article group). All compounds will be delivered on a daily (5 days per week) schedule for 3 weeks during the smoke exposures. Mice were exposed to cigarette smoke for 6 hours per day, 5 days per week for 3 weeks, in H1000 or H2000 chambers. Type 2R4F research cigarettes (Kentucky Tobacco Research and Development Center) were used in the study. Total particulate material (TPM) exposure was kept at […] for the first week to allow animals to reduce adverse effects during adaptation to smoke exposure. TPM exposure was maintained between 100 and 250 mg TPM/m^3 during the remainder of the study. After 3 weeks, animals were euthanized and bronchoalveolar lavage fluid was obtained for cell differentials and cytokine analysis by Luminex multiplex immunoassay.

[4] = system: ragweed-induced bronchoconstriction; assay: Ragweed-induced bronchoconstriction in dogs; format: in vivo, beagle dogs; settings: 10 μg/kg by inhalation 30 minutes before ragweed; n=4; mean ± s.e.m.
Protocol: The compound of Example 52 was assesed for bronchodilator activity in a ragweed-induced bronchoconstriction model in beagle dogs. Dogs were mechanically ventilated during each experiment. Airflow and tidal volume were measured using a differential pressure transducer located in front of the endotracheal tube. An esophageal balloon catheter placed in the esophagus was used to determine transpulmonary pressure. Pulmonary resistance and dynamic lung compliance were calculated from the simultaneous measurement of transpulmonary pressure and respiratory flow. The canine exposure system was designed to expose an anesthetized animal via an intubation tube. Dogs were administered vehicle or test article by inhalation 30 minutes before ragweed antigen exposure (n=4). Dogs were challenged with ragweed antigen (ragweed short, Ambrosia artemisifolia, Greer, Lenoir, N.C.) by inhalation (5 breaths). Immediately following ragweed challenge, changes in pulmonary resistance and compliance were measured for up to 30 minutes.

[5] = system: Ascaris suum antigen-induced bronchoconstriction and airway hyperreactivity; assay: Ascaris suum-induced pulmonary responses in sheep; format: in vivo
Protocol: One breath unit is defined as one breath of a 1% w/v carbachol solution. Test article was administered either by a pre-dosing or duration of action protocol. In the pre-dosing regimen, animals were dosed once daily for four days, with the last dose administered 1 hr before antigen. In the duration of action regimen, animals were dosed once daily for four days, with the last dose administered 24 hours before antigen. Test article, Ascaris antigen, and carbachol were administered by nebulized aerosol to intubated sheep.

[6] = Stability of steroid C-21 esters, carbonates and carbamates in rat lung homogenate; settings: for Mean [Parent] (nM) at 2 hrs, 37° C.: parent compound; for Mean % compound remaining at 2 hrs, 37° C.: 900 nM, n=3
Protocol: Lungs from Fischer 344 rats were obtained fresh by overnight delivery at 4° C. from BioReclamation Inc. (Hicksville, N.Y.). Lungs were weighed and homogenized in a 1:3 w/v ratio with sterile phosphate buffered saline (PBS, 10 mM, pH 7.4) in glass vials on ice. After centrifugation at 3,000×g for 10 min at 4° C. the supernatant was decanted into sterile conical tubes and placed on ice. The total protein content of the supernatant was determined by the bicinchoninic acid (BCA) method (Pierce Biotechnology, Rockford, Ill.), using bovine serum albumin (BSA) as the standard. Lung homogenates were prepared to a final concentration of 1 mg total protein/mL in 10 mM PBS, pH 7.4.
Heat-inactivation was achieved by incubation at 80° C. for 30 min, after which the homogenate was allowed to cool to room temperature, stored overnight at 4° C. The homogenate was used for the assay and standard curve preparations. Before use, each homogenate preparation was equilibrated for 15 min in a 37° C. water bath. […] DMSO (2.7 uL) added to 3 mL of temperature-equilibrated homogenate served as a control. Aliquots (100 uL) of homogenate+compound were added to 400 μL quenching solution consisting of 100% HPLC-grade acetonitrile+500 ng/mL glyburide for the zero time point (n=3 for each time point).
The glyburide served as an internal LC/MS/MS standard. The remainder of each drug+homogenate solution was aliquoted into a 96-well tissue culture plates. After an additional 30 min and 120 min incubation at 37° C., 100 μL aliquots were added to 400 μL quenching solution. Denatured proteins in the quenching solution were separated by centrifugation at 3000×g for 2 min at 4° C., and 160 μL of the supernatants were transferred to new 96-well plate for analysis by LC/MS/MS. Collection plates were covered with plastic film and were kept on ice. For storage, covered plates were and kept stored at −80° C. until further use.
An aliquot of 50 μL of each sample was diluted with 50 μL of water containing internal standard at 4° C. The diluted samples were then centrifuged for 20 minutes at 3000 rpm at 4° C. An aliquot of 20 μL of the solution was injected into the TSQ Ultra Quantum.
LC/MS/MS system. The compounds were separated by HPLC using a HyPurity C18 HPLC column (30×2.1 mm, 5μ) from ThermoHypersil. A Multiplex LX-2 HPLC system (Cohesive Technologies, Franklin, Mass.) with two identical Agilent 1100 series binary pumps (P/N G1312A) were used for elution and separation. Samples were maintained at 4° C. in an HTS Pal autosampler (LEAP Technologies, Carrboro, N.C.) in order to reduce any potential spontaneous hydrolysis of the compounds before injection onto the HPLC. The analytes were eluted using the following mobile phases; Mobile phase A contained 1% acetonitrile in 10 mM ammonium formate aqueous solution with 1% formic acid. Mobile phase B contained 80% acetonitrile in 10 mM ammonium formate with 1% formic acid. The HPLC elution program used to elute the analytes was as follows:
The samples were further analyzed by tandem mass spectrometry using a TSQ Quantum Ultra triple quadrupole mass spectrometer (Thermo Finnigan, San Jose, Calif.) using a selective reaction monitoring (SRM) scan type. The mass spectrometry parameters used were as follows:
Nine-point standard curves for each test compound were prepared and analyzed in heat-inactivated lung homogenate. […] The data expressed in Table 2 represent the mean (n=3) percent remaining compound in both types of homogenate at 2 hours, 37° C.

[7] = 0.51 mg/kg i.t. daily, 3 weeks smoke
[8] = Inactive (heat-inactivated) rat lung homogenate

## CC(C)C(=O)OCC(=O)[C@@]12O[C@H](C3CCCCC3)O[C@@H]1C[C@H]1[C@@H]3CCC4=CC(=O)C=C[C@]4(C)[C@H]3[C@@H](O)C[C@@]12C [Ciclesonide, ciclesonide]
[1]
  Eosinophils in BAL, Mean: 60170 mL⁻¹
  Neutrophils in BAL, Mean: 4790 mL⁻¹
[2]; 3 mg/kg intratracheal, 1 hour prior to LPS, rat BAL, mean ± s.e.m.
  Neutrophils: 9.7 ± 0.89 × 10^4/ml
[2]; 3 mg/kg intratracheal, rat BAL, mean ± s.e.m.
  TNFα: 629.2 ± 330.0 pg/mL
[2]; at doses tested, versus vehicle control
  Inhibition of LPS-induced airway inflammation measured as neutrophil influx and TNFα production: significantly inhibit
[3]; 0.31 mg/kg i.t.
  IL-1α: 5.25 ± 0.85 pg/mL
  MIP-1α: 8.31 ± 1.17 pg/mL
  Neutrophils: 13.9 ± 2.1 ×10^4/ml
[3]; [7]
  IL-1α: 5.50 ± 0.96 pg/mL
  MIP-1α: 10.02 ± 1.75 pg/mL
  Neutrophils: 15.0 ± 1.5 ×10^4/ml
[4]
  Pulmonary Resistance (% of Baseline): 302.3 ± 24.8 % of Baseline
[5]; Duration of action regimen (last dose 24 hours before antigen), Post-Ascaris, Example 52 4.7 mg, ciclesonide 2.2 mg, salmeterol xinafoate 2.5 mg, n=4
  Bronchoconstriction, Lung Resistance (% Increase): 416 % Increase
[5]; Duration of action regimen, 1 hour, n=4
  Bronchoconstriction, Lung Resistance (% Increase): 224 % Increase
[5]; Duration of action regimen, 2 hours, n=4
  Bronchoconstriction, Lung Resistance (% Increase): 146 % Increase
[5]; Duration of action regimen, 3 hours, n=4
  Bronchoconstriction, Lung Resistance (% Increase): 69 % Increase
[5]; Duration of action regimen, 4 hours, n=4
  Bronchoconstriction, Lung Resistance (% Increase): 21 % Increase
[5]; Duration of action regimen, 5 hours, n=4
  Bronchoconstriction, Lung Resistance (% Increase): 44 % Increase
[5]; Duration of action regimen, 6 hours, n=4
  Bronchoconstriction, Lung Resistance (% Increase): 66 % Increase
[5]; Duration of action regimen, 6.5 hours, n=4
  Bronchoconstriction, Lung Resistance (% Increase): 71 % Increase
[5]; Duration of action regimen, 7 hours, n=4
  Bronchoconstriction, Lung Resistance (% Increase): 65 % Increase
[5]; Duration of action regimen, 7.5 hours, n=4
  Bronchoconstriction, Lung Resistance (% Increase): 62 % Increase
[5]; Duration of action regimen, 8 hours, n=4
  Bronchoconstriction, Lung Resistance (% Increase): 50 % Increase
[5]; Duration of action regimen, Baseline, Example 52 4.7 mg, ciclesonide 2.2 mg, salmeterol xinafoate 2.5 mg, n=4
  Hyperreactivity PC400: 28.3 carbachol breath units
[5]; Duration of action regimen, Post-Antigen, n=4
  Hyperreactivity PC400: 21.5 carbachol breath units
[5]; Predosing regimen (last dose 1 hr before antigen), Post-Ascaris, Example 52 4.7 mg, ciclesonide 2.2 mg, n=2
  Bronchoconstriction, Lung Resistance (% Increase): 305 % Increase
[5]; Predosing regimen, 1 hour, n=2
  Bronchoconstriction, Lung Resistance (% Increase): 142 % Increase
[5]; Predosing regimen, 2 hours, n=2
  Bronchoconstriction, Lung Resistance (% Increase): 44 % Increase
[5]; Predosing regimen, 3 hours, n=2
  Bronchoconstriction, Lung Resistance (% Increase): 8 % Increase
[5]; Predosing regimen, 4 hours, n=2
  Bronchoconstriction, Lung Resistance (% Increase): 6 % Increase
[5]; Predosing regimen, 5 hours, n=2
  Bronchoconstriction, Lung Resistance (% Increase): 14 % Increase
[5]; Predosing regimen, 6 hours, n=2
  Bronchoconstriction, Lung Resistance (% Increase): 28 % Increase
[5]; Predosing regimen, 6.5 hours, n=2
  Bronchoconstriction, Lung Resistance (% Increase): 12 % Increase
[5]; Predosing regimen, 7 hours, n=2
  Bronchoconstriction, Lung Resistance (% Increase): 28 % Increase
[5]; Predosing regimen, 7.5 hours, n=2
  Bronchoconstriction, Lung Resistance (% Increase): 33 % Increase
[5]; Predosing regimen, 8 hours, n=2
  Bronchoconstriction, Lung Resistance (% Increase): 15 % Increase
[5]; Predosing regimen, Baseline, Example 52 4.7 mg, ciclesonide 2.2 mg, n=2
  Hyperreactivity PC400: 26.5 carbachol breath units
[5]; Predosing regimen, Post-Antigen (24 hours after challenge), n=2
  Hyperreactivity PC400: 25.5 carbachol breath units
[5]; duration of action regimen
  Effect on late phase bronchoconstriction and development of airway hyperreactivity: reduced efficacy
[6]; Active homogenate
  Mean [Parent] (nM) at 2 hrs, 37° C.: 18 nM
[6]; Active rat lung homogenate
  Mean % compound remaining at 2 hrs, 37° C.: 12%
[6]; [8]
  Mean % compound remaining at 2 hrs, 37° C.: 88%
[6]; Inactive homogenate
  Mean [Parent] (nM) at 2 hrs, 37° C.: 154 nM

## CCN(CC)Cc1ccc(C(=O)OCC(=O)[C@@]23O[C@H](C4CCCCC4)O[C@@H]2C[C@H]2[C@@H]4CCC5=CC(=O)C=C[C@]5(C)[C@H]4[C@@H](O)C[C@@]23C)cc1 [Example 30, 4-Diethylaminomethylbenzoic acid [[11β,16α]-[[((R)-cyclohexylmethylene)bis(oxy)]-11-hydroxypregna-1,4-diene-3,20-dion-21-yl]]ester]
other
  melting point: 123.5 °C (dec.)
[6]; Active homogenate
  Mean [Parent] (nM) at 2 hrs, 37° C.: 102 nM
[6]; Active rat lung homogenate
  Mean % compound remaining at 2 hrs, 37° C.: 46%
[6]; [8]
  Mean % compound remaining at 2 hrs, 37° C.: 51%
[6]; Inactive homogenate
  Mean [Parent] (nM) at 2 hrs, 37° C.: 109 nM
